How the values were obtained:
Assay in all cases: binding to AX14596 beads (HeLa lysate, SILAC MS)
ALK2 (ACVR1) = target: T1, ALK2 (ACVR1) (Homo sapiens, UniProt Q04771)
T1 sequence (Q04771 21-509): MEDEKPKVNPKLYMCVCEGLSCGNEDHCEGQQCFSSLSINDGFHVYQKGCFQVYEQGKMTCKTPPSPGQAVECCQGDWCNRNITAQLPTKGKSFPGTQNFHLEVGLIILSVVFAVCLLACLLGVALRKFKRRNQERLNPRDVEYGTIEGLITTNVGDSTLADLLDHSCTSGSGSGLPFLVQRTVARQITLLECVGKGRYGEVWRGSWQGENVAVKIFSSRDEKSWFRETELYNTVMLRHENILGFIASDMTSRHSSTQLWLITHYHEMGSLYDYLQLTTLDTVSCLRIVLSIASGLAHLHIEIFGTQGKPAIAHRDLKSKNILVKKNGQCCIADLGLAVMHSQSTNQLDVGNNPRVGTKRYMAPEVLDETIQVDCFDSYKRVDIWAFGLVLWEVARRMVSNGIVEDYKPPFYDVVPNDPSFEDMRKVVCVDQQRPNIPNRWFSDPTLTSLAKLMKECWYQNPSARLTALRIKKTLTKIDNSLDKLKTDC
Experimental: (§1) Differentially SILAC-encoded cell lysates were either incubated with the inhibitor beads displaying immobilized AX14596 or control resin devoid of ligand. In parallel, the supernatant from the first binding step was subjected to a second incubation with the AX14596 resin (FIG. 4). The resulting three elution fractions were combined, resolved by gel electrophoresis, proteolytically digested and the relative abundance of the retained proteins quantified. Proteins showing considerable binding to the control resin were identified as non-specific interactors and therefore not considered further. […] These target-specific ratios were similar in “label switch” experiments (FIGS. 6a and 6c). The binding equilibrium was determined in parallel control SILAC experiments as well as the excess of the immobilized compound over its cellular targets, the excess preferably being a molar excess (FIG. 7 and FIG. 8).
(§2) Cysteine carbamidomethylation was set as a fixed modification and N-acetyl protein and oxidized methionine were allowed as variable modifications. Spectra that were determined to result from heavy labeled peptides in the pre-search detection of SILAC partners by MaxQuant were searched with the fixed modifications Lys^4, Lys^8, Arg^6 and Arg^10, whereas MS/MS spectra for which no SILAC state could be assigned before database searching were searched with Lys^4, Lys^8, Arg^6 and Arg^10 as variable modifications. The mass tolerance was set to 5 ppm for monoisotopic precursor ions and to 0.5 Da for MS/MS peaks. The minimum peptide length was set to 6 amino acids and up to three missed cleavages and three isotopically labeled amino acids were permitted per peptide. The accepted false discovery rate (FDR) was 1% for the proteins and peptides. The cut-off for the posterior error probability (PEP) of peptides was set to 10%. Peptide PEPs were determined by generating Mascot score and peptide-length-dependent histograms for both the forward and the reverse hits and then deriving the probability of a false identification for a given top-scoring peptide using Bayes' theorem. The PEPs of peptides belonging to the same proteins were then multiplied. Each peptide sequence was considered only once with the lowest PEP determined in case of multiple sequencing of the same isotopic pattern or of peptide species with different SILAC, charge or modification states. Proteins were then sorted according to their products of their peptide PEPs and included until a FDR of 1% was reached according to the fraction of reverse proteins contained in the protein list. In addition to the FDR threshold applied for protein identification, proteins were only included when they were identified with at least two peptides (of which one was required to be unique for the protein) and quantified if at least on quantifiable SILAC pair was associated with them. Outliers were not removed as protein ratios were calculated as the median instead of the average of all peptide ratios. For peptides shared among different identified proteins, SILAC ratios were only considered for the ratio of the protein identified with the highest number of unique peptides. Protein ratios for the different in vitro association experiments were corrected for the initial SILAC pooling ratio, which was determined from the median of protein ratios in pooled SILAC-encoded cell extracts.

SNRPE = SNRPE (Homo sapiens, UniProt P62304)
Sequence of SNRPE (P62304 whole entry): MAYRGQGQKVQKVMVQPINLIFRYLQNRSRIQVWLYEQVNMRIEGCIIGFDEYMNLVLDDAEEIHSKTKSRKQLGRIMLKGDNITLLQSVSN
Experimental: as §1, §2

JNK2 (MAPK9) = JNK2 (MAPK9) (Homo sapiens, UniProt P45984)
Sequence of JNK2 (MAPK9) (P45984 whole entry): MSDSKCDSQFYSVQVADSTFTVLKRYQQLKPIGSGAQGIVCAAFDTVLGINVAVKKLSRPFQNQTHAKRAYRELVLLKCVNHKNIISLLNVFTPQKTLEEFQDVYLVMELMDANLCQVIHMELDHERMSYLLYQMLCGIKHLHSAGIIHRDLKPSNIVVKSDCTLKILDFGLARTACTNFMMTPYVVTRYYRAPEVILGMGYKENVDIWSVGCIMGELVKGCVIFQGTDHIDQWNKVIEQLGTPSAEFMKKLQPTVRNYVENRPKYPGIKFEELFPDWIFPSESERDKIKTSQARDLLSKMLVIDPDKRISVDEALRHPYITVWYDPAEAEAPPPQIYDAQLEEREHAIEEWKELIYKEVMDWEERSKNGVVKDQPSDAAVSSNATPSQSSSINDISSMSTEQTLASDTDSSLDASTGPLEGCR
Experimental: as §1, §2

IGF2BP1 = IGF2BP1 (Homo sapiens, UniProt Q9NZI8)
Sequence of IGF2BP1 (Q9NZI8 whole entry): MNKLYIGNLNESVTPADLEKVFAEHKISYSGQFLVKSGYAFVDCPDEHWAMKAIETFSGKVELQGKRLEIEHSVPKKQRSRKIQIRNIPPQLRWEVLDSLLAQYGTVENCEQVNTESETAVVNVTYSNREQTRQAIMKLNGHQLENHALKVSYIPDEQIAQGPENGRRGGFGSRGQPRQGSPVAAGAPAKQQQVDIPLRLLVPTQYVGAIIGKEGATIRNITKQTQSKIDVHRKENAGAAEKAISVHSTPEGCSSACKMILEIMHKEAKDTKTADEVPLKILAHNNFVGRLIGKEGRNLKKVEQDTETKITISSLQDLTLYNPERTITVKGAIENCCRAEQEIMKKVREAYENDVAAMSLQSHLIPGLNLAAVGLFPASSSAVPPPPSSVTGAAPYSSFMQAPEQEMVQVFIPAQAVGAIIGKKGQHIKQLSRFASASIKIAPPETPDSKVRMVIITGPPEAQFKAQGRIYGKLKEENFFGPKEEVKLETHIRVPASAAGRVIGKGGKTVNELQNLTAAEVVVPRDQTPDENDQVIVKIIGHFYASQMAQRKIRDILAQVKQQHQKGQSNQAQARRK
Experimental: as §1, §2

SgK085 (MYLK3) = target: T2, SgK085 (MYLK3) (Homo sapiens, UniProt Q32MK0)
T2 sequence (Q32MK0 1-819): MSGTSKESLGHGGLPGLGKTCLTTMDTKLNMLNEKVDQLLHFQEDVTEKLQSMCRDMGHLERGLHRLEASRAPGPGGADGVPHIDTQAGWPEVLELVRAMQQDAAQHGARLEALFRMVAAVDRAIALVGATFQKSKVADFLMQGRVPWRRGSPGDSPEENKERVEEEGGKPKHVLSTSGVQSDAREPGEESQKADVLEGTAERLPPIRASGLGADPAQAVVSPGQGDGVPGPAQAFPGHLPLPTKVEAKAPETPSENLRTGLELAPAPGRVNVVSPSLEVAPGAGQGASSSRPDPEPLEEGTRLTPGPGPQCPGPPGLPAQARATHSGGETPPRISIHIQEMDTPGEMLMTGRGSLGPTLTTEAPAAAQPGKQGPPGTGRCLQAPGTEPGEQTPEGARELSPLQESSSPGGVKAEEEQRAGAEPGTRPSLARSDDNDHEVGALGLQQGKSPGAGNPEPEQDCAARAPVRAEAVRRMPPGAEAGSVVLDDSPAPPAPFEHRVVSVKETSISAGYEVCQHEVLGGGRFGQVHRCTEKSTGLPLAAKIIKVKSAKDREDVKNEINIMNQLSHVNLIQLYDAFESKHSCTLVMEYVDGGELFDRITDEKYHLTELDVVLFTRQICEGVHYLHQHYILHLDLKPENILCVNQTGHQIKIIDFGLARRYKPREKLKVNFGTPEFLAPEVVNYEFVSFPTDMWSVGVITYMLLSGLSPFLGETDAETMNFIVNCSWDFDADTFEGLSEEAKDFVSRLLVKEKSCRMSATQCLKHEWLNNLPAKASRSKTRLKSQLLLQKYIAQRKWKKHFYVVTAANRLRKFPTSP
Experimental: as §1, §2

SMILES: COc1cc2ncnc(Nc3ccc(F)c(Cl)c3)c2cc1OCCCN [AX14596]
- Ki (ALK2 (ACVR1)): 202 µM
- r (3 mg/1 mg lysate) (ALK2 (ACVR1)): 2.57
- r (5 h/2.5 h inc. time) (ALK2 (ACVR1)): 1.17
- rAVERAGE (2. inc/1. inc) (ALK2 (ACVR1)): 0.67
- rAVERAGE (control/1. inc) (ALK2 (ACVR1)): 0.15
- Ki (SNRPE): 106 µM
- r (3 mg/1 mg lysate) (SNRPE): 2.57
- r (5 h/2.5 h inc. time) (SNRPE): 1.88
- rAVERAGE (2. inc/1. inc) (SNRPE): 0.51
- rAVERAGE (control/1. inc) (SNRPE): 0.07
- Ki (JNK2 (MAPK9)): 110 µM
- r (3 mg/1 mg lysate) (JNK2 (MAPK9)): 2.58
- r (5 h/2.5 h inc. time) (JNK2 (MAPK9)): 0.95
- rAVERAGE (2. inc/1. inc) (JNK2 (MAPK9)): 0.52
- rAVERAGE (control/1. inc) (JNK2 (MAPK9)): 0.03
- % BOUND (JNK2 (MAPK9); bound to AX14596 beads): 48%
- Ki (IGF2BP1): 367 µM
- rAVERAGE (2. inc/1. inc) (IGF2BP1): 0.79
- rAVERAGE (control/1. inc) (IGF2BP1): 0.19
- Ki (SgK085 (MYLK3)): 186 µM
- r (3 mg/1 mg lysate) (SgK085 (MYLK3)): 2.56
- r (5 h/2.5 h inc. time) (SgK085 (MYLK3)): 0.97
- rAVERAGE (2. inc/1. inc) (SgK085 (MYLK3)): 0.65
- rAVERAGE (control/1. inc) (SgK085 (MYLK3)): 0.00
